The results in this text go back to patent US5047418A, “Method of stimulating histamine H3 -receptors” (Smith Kline & French Laboratories Limited, priority 1989, dated 1991).

Where only a bound is given, the exact number is not on record here.

The target in experiment [1] is T1, histamine H3 -receptor (Cavia porcellus, UniProt Q9JI35).
T1 construct: twitch responses of the guinea-pig ileum; from tissue; host or cells: guinea-pig ileum (isolated, electrically stimulated, organ bath)
Briefly: Inhibition of electrically evoked twitch responses of guinea-pig ileum (histamine H3-agonist activity). The following applies: read-out: EC50 (concentration of compound which caused 50% inhibition of the twitch response). As for the experimental part:
Inhibition of the electrically evoked twitch responses of the guinea-pig ileum by histamine H3 -receptor agonists was studied by addition of graded concentrations of the compound (in volumes of 25 μl or 79 μl) to the organ bath in a sequential manner. Each concentration of agonist was washed out of the bath when the response had reached equilibrium. A four minute period was allowed between each addition of the compound.

The target in experiment [2] is T2, histamine H1 -receptor (Cavia porcellus, UniProt P31389). Briefly: Histamine H1-antagonist activity on guinea-pig ileum. As to the method:
(§1) The activity of the compounds of the formula (1) at the histamine H1 - or H2 -receptor was assessed substantially as described by Parsons et al., Agents and Actions, 1976, 7(1), 31.
On the guinea-pig ileum the compound of the formula (1) wherein X is CH2 had no histamine H1 -antagonist activity up to 10^-5 M.

The target of experiment [3] is T3, histamine H2 -receptor (Cavia porcellus, UniProt P47747).
T3 construct: On the guinea-pig atrium; from tissue; host or cells: guinea-pig atrium (isolated tissue)
T3 sequence (P47747 whole entry): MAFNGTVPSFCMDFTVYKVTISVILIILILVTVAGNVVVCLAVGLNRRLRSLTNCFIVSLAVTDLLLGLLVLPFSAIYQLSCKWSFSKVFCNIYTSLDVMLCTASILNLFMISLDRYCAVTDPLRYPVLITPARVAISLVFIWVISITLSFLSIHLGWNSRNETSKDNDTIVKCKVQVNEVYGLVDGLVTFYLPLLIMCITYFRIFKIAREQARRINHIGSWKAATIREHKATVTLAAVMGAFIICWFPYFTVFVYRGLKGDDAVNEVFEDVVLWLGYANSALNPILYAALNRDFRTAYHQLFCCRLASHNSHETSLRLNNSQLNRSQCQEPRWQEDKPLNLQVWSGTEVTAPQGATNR
Briefly: Histamine H2-agonist activity on guinea-pig atrium. As for the experimental part: as §1

Experiment [4] deals with T2, histamine H1 -receptor. Briefly: Histamine H1-agonist activity on guinea-pig ileum. As for the experimental part: as §1
For experiment [5], the target named is T3, histamine H2 -receptor. Put plainly: Histamine H2-antagonist activity on guinea-pig atrium. The following applies: read-out: pA2 (histamine H2 -antagonist activity) (converted).

T2 sequence (P31389 whole entry): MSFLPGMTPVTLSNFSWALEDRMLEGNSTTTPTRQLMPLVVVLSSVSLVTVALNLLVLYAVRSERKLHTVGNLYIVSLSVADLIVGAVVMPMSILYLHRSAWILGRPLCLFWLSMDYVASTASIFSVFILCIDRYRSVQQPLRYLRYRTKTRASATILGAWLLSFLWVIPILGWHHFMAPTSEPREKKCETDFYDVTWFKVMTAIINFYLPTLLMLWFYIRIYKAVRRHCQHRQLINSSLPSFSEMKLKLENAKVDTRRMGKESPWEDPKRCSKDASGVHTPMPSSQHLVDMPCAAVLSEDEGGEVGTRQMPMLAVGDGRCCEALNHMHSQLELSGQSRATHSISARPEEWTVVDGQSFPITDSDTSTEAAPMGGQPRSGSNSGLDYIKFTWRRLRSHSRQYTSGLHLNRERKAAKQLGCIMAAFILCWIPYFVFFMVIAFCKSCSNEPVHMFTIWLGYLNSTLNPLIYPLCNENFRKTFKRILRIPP
T1 sequence (Q9JI35 whole entry): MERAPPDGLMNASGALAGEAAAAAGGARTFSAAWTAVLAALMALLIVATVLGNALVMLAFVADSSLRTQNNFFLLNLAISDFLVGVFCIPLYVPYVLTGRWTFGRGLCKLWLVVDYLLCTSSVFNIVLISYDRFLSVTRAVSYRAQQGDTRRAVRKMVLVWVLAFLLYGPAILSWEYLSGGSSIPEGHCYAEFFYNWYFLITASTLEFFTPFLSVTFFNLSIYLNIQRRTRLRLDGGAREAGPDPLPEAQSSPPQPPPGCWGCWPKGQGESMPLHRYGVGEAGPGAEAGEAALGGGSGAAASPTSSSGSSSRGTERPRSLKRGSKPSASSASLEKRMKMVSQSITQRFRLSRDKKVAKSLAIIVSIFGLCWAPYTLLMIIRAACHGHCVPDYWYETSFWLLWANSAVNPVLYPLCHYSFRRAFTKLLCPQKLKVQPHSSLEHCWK

For `N=C(N)CCCc1c[nH]cn1` [X = CH2, 4-(4(5)-imidazolyl)butyramidine], the EC50 in experiment [1] is 0.0011 µM. The “concentration at which histamine H1 -antagonist activity is demonstrated” value in experiment [2] is > 10^-5 M. The “concentration at which histamine H2 -agonist activity is demonstrated” value in experiment [3] was > 10^-5 M. Besides, in experiment [4], the “concentration at which histamine H1 -agonist activity is demonstrated” value was > 10^-5 M. For the same compound, in experiment [5], the Kb was roughly 251 µM.

`N=C(N)SCCc1c[nH]cn1` [X = S, S-[2-(4(5)-imidazolyl)ethyl]isothiourea]: the EC50 in experiment [1] was determined as 0.0046 µM. Besides, the “concentration at which histamine H1 -agonist activity is demonstrated” value in experiment [4] is given as 10^-4 to 10^-3 M. The Kb in experiment [5] is 79.4 µM.
